The source of these data is patent publication US10239838B2, “Heteroaryl orexin receptor antagonists” (Merck Sharp & Dohme Corp., priority 2014, dated 2019).

The target in one experiment is human orexin-2 receptor (Homo sapiens (Human), UniProt O43614). The experiment can be described thus: FLIPR Ca2+ Flux Assay, orexin-2 receptor. The format is cell-based. As to conditions: CHO cells expressing the human orexin-2 receptor; agonist 70 pM Ala-6,12 orexin-A; read-out: hOX2R FLIPR IC50. The method, then: In a typical experiment the OX1 and OX2 receptor antagonistic activity of the compounds of the present invention was determined in accordance with the following experimental method. For intracellular calcium measurements, Chinese hamster ovary (CHO) cells expressing the rat orexin-1 receptor or the human orexin-2 receptor, are grown in Iscove's modified DMEM containing 2 mM L-glutamine, […], 1% hypoxanthine-thymidine supplement, 100 U/ml penicillin, 100 μg/ml streptomycin and 10% heat-inactivated fetal calf serum (FCS). The cells are seeded at 20,000 cells/well into Becton-Dickinson black 384-well clear bottom sterile plates coated with poly-D-lysine. All reagents were from GIBCO-Invitrogen Corp. The seeded plates are incubated overnight at 37° C. and 5% CO2. Ala-6,12 human orexin-A as the agonist is prepared as a 1 mM stock solution in 1% bovine serum albumin (BSA) and diluted in assay buffer (HBSS containing 20 mM HEPES, 0.1% BSA and 2.5 mM probenecid, pH7.4) for use in the assay at a final concentration of 70 pM. Test compounds are prepared as 10 mM stock solution in DMSO, then diluted in 384-well plates, first in DMSO, then assay buffer. On the day of the assay, cells are washed 3 times with 100 μl assay buffer and then incubated for 60 min (37° C., 5% CO2) in 60 μl assay buffer containing 1 μM Fluo-4 AM ester, 0.02% pluronic acid, and 1% BSA. The dye loading solution is then aspirated and cells are washed 3 times with 100 μl assay buffer. 30 μl of that same buffer is left in each well. Within the Fluorescent Imaging Plate Reader (FLIPR, Molecular Devices), test compounds are added to the plate in a volume of 25 μl, incubated for 5 min and finally 25 μl of agonist is added. Fluorescence is measured for each well at 1 second intervals for 5 minutes and the height of each fluorescence peak is compared to the height of the fluorescence peak induced by 70 pM Ala-6,12 orexin-A with buffer in place of antagonist. […] Alternatively, compound potency can be assessed by a radioligand binding assay (described in Bergman et. al. Bioorg. Med. Chem. Lett. 2008, 18, 1425-1430) in which the inhibition constant (Ki) is determined in membranes prepared from CHO cells expressing either the OX1 or OX2 receptor. The intrinsic orexin receptor antagonist activity of a compound which may be used in the present invention may be determined by these assays.
For orientation: A change in cytosolic calcium serves as a functional read-out for many receptors and channels.

The target of the next experiment is hOX1R (Homo sapiens, UniProt O43613). The experiment can be described thus: FLIPR Ca2+ Flux Assay, orexin-1 receptor. Particulars: CHO cells expressing orexin-1 receptor; agonist 70 pM Ala-6,12 orexin-A. The format is cell-based.

SMILES strings stand for the structures.

Chain of human orexin-2 receptor (O43614 whole entry): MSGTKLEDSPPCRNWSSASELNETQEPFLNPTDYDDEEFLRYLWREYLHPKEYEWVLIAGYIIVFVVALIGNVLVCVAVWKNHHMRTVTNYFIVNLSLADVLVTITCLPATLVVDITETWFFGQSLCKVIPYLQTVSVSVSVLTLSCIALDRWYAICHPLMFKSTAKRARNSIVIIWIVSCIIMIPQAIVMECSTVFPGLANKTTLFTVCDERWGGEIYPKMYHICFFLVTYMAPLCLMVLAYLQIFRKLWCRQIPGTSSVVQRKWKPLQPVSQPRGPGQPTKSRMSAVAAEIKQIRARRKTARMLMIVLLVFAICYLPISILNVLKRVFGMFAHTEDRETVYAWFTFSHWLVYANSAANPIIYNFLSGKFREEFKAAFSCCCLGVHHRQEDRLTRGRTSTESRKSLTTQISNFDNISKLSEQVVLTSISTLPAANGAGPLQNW

With `CCN(CCc1cc(C(C)(C)O)ccn1)C(=O)c1ccccc1-n1nccn1` [Example 1, N-Ethyl-N-{2-[4-(1-hydroxy-1-methylethyl)pyridin-2-yl]ethyl}-2-(2H-1,2,3-triazol-2-yl)benzamide], the IC50 is 69 nM on human orexin-2 receptor and over 10000 nM at hOX1R.

For the compound `CCN(CCc1cccc(C(C)(C)O)n1)C(=O)c1ccccc1-n1nccn1` [Example 4, N-Ethyl-N-{2-[6-(1-hydroxy-1-methylethyl)pyridin-2-yl]ethyl}-2-(2H-1,2,3-triazol-2-yl)benzamide], the IC50 at human orexin-2 receptor came to 15 nM.

On to `CCN(CCc1cccc(C(C)(C)O)n1)C(=O)c1cccnc1OC(C)C` [Example 5, N-Ethyl-N-{2-[6-(1-hydroxy-1-methylethyl)pyridin-2-yl]ethyl}-2-(1-methylethoxy)pyridine-3-carboxamide], for which the values for the IC50 on human orexin-2 receptor and at hOX1R were 133 nM and over 10000 nM, respectively.

Regarding `CCOc1ncccc1C(=O)N(CC)CCc1cccc(C(C)(C)O)n1` [Example 6, 2-ethoxy-N-ethyl-N-{2-[6-(1-hydroxy-1-methylethyl)pyridin-2-yl]ethyl}pyridine-3-carboxamide], the IC50 on human orexin-2 receptor is 206 nM; on hOX1R, over 10000 nM.

As for `CCN(CCc1cccc(C(C)(C)O)n1)C(=O)c1ccccc1OC(F)F` [Example 7, 2-(difluoromethoxy)-N-ethyl-N-{2-[6-(1-hydroxy-1-methylethyl)pyridin-2-yl]ethyl}benzamide], the IC50 was 196 nM at human orexin-2 receptor and over 10000 nM at hOX1R.

As to `CCN(CCc1cccc(C(C)(C)O)n1)C(=O)c1ccccc1OC(F)(F)F` [Example 8, N-ethyl-N-{2-[6-(1-hydroxy-1-methylethyl)pyridin-2-yl]ethyl}-2-(trifluoromethoxy)benzamide], the results for the IC50 on human orexin-2 receptor and on hOX1R were 32 nM and over 10000 nM, respectively.

For `CCN(CCc1cccc(C(C)(C)O)n1)C(=O)c1cccnc1OCC(F)F` [Example 9, 2-(2,2-difluoroethoxy)-N-ethyl-N-{2-[6-(1-hydroxy-1-methylethyl)pyridin-2-yl]ethyl}pyridine-3-carboxamide], the concentration for half-maximal inhibition (IC50) at human orexin-2 receptor is 95 nM; on hOX1R, over 10000 nM.

As to `CCN(CCc1cccc(C(C)(C)O)n1)C(=O)c1cccnc1OCC(F)(F)F` [Example 10, N-ethyl-N-{2-[6-(1-hydroxy-1-methylethyl)pyridin-2-yl]ethyl}-2-(2,2,2-trifluoroethoxy)pyridine-3-carboxamide], the half-inhibitory concentration (IC50) at human orexin-2 receptor was 69 nM; at hOX1R, over 10000 nM.

As to `CCOc1ccccc1C(=O)N(CC)CCc1cccc(C(C)(C)O)n1` [Example 11, 2-ethoxy-N-ethyl-N-{2-[6-(1-hydroxy-1-methylethyl)pyridin-2-yl]ethyl}benzamide], the figures for the IC50 at human orexin-2 receptor and on hOX1R were 76 nM and over 10000 nM, respectively.

`CCN(CCc1cccc(C(C)(C)O)n1)C(=O)c1ccccc1-n1cccn1` [Example 12, N-ethyl-N-{2-[6-(1-hydroxy-1-methylethyl)pyridin-2-yl]ethyl}-2-(1H-pyrazol-1-yl)benzamide]: the half-maximal inhibitory concentration (IC50) on human orexin-2 receptor was 66 nM; at hOX1R, over 10000 nM.

As for `CCN(CCc1cccc(C(C)(C)O)n1)C(=O)c1ccc(F)cc1-n1nccn1` [Example 13, N-ethyl-4-fluoro-N-{2-[6-(1-hydroxy-1-methylethyl)pyridin-2-yl]ethyl}-2-(2H-1,2,3-triazol-2-yl)benzamide], the results for the IC50 at human orexin-2 receptor and at hOX1R were 8 nM and over 10000 nM, respectively.

Turning to `CCN(CCc1cccc(C(C)(C)O)n1)C(=O)c1cccnc1-c1ccccc1` [Example 14, N-ethyl-N-{2-[6-(1-hydroxy-1-methylethyl)pyridin-2-yl]ethyl}-2-phenylpyridine-3-carboxamide], the IC50 was 103 nM at human orexin-2 receptor and over 10000 nM at hOX1R.

Turning to `CCN(CCc1cccc(C(C)(C)O)n1)C(=O)c1ccccc1C1CC1` [Example 15, 2-cyclopropyl-N-ethyl-N-{2-[6-(1-hydroxy-1-methylethyl)pyridin-2-yl]ethyl}benzamide], the IC50 at human orexin-2 receptor is 43 nM; at hOX1R it was over 10000 nM.

For `CCCc1ccccc1C(=O)N(CC)CCc1cccc(C(C)(C)O)n1` [Example 16, N-ethyl-N-(2-(6-(2-hydroxypropan-2-yl)pyridin-2-yl)ethyl)-2-propylbenzamide], the values for the IC50 at human orexin-2 receptor and on hOX1R were 104 nM and over 10000 nM, respectively.

`CCN(CCc1cccc(C(C)(C)O)n1)C(=O)c1ccccc1OCC(F)(F)F` [Example 17, N-ethyl-N-(2-(6-(2-hydroxypropan-2-yl)pyridin-2-yl)ethyl)-2-(2,2,2-trifluoroethoxy)benzamide]: the 50% inhibitory concentration (IC50) on human orexin-2 receptor was 261 nM; at hOX1R it was over 10000 nM.

`CCN(CCc1cccc(C(C)(C)O)n1)C(=O)c1ccccc1CC(F)(F)F` [Example 18, N-ethyl-N-(2-(6-(2-hydroxypropan-2-yl)pyridin-2-yl)ethyl)-2-(2,2,2-trifluoroethyl)benzamide]: the IC50 on hOX1R was over 10000 nM.

As for `CCN(CCc1cccc(C(C)(C)O)n1)C(=O)c1ccc(OC)nc1C1CC1` [Example 19, 2-cyclopropyl-N-ethyl-N-(2-(6-(2-hydroxypropan-2-yl)pyridin-2-yl)ethyl)-6-methoxynicotinamide], the IC50 at human orexin-2 receptor was determined as 16 nM.

Take `CCN(CCc1cccc(C(C)(C)O)n1)C(=O)c1ccccc1OCC(F)F` [Example 20, 2-(2,2-difluoroethoxy)-N-ethyl-N-(2-(6-(2-hydroxypropan-2-yl)pyridin-2-yl)ethyl)benzamide]: the results for the IC50 on human orexin-2 receptor and on hOX1R were 136 nM and over 10000 nM, respectively.

In the case of `CCN(CCc1cccc(C(C)(C)O)n1)C(=O)c1ccccc1CC(F)F` [Example 23, 2-(2,2-difluoroethyl)-N-ethyl-N-(2-(6-(2-hydroxypropan-2-yl)pyridin-2-yl)ethyl)benzamide], the IC50 at human orexin-2 receptor is 142 nM; on hOX1R, over 10000 nM.

Take `CCN(CCc1cccc(C(C)(C)O)n1)C(=O)c1cccnc1-n1cccn1` [Example 24, N-ethyl-N-(2-(6-(2-hydroxypropan-2-yl)pyridin-2-yl)ethyl)-2-(1H-pyrazol-1-yl)nicotinamide]: the IC50 is 36 nM at human orexin-2 receptor and over 10000 nM at hOX1R.

Regarding `CCN(CCc1cccc(C(C)(C)O)n1)C(=O)c1ccccc1C1CCC1` [Example 25, 2-cyclobutyl-N-ethyl-N-(2-(6-(2-hydroxypropan-2-yl)pyridin-2-yl)ethyl)benzamide], the IC50 on human orexin-2 receptor was 34 nM.

For `CCN(CCc1cccc(C(C)(C)O)n1)C(=O)c1ncccc1-c1ccccc1` [Example 26, N-ethyl-N-(2-(6-(2-hydroxypropan-2-yl)pyridin-2-yl)ethyl)-3-phenylpicolinamide], the IC50 was 452 nM at human orexin-2 receptor and over 10000 nM at hOX1R.

As for `CCN(CCc1cccc(C(C)(C)O)n1)C(=O)c1ccccc1N1CCCC1` [Example 28, N-ethyl-N-(2-(6-(2-hydroxypropan-2-yl)pyridin-2-yl)ethyl)-2-(pyrrolidin-1-yl)benzamide], the IC50 at human orexin-2 receptor was 88 nM; on hOX1R it was over 10000 nM.

In the case of `CCN(CCc1cccc(C(C)(C)O)n1)C(=O)c1ccccc1-n1ncnn1` [Example 29, N-ethyl-N-(2-(6-(2-hydroxypropan-2-yl)pyridin-2-yl)ethyl)-2-(2H-tetrazol-2-yl)benzamide], the IC50 at human orexin-2 receptor is 146 nM; at hOX1R, over 10000 nM.

For the compound `CCN(CCc1cccc(C(C)(C)O)n1)C(=O)c1ccccc1C1CC1(F)F` (stereo not drawn) [Example 31, 2-(2,2-difluorocyclopropyl)-N-ethyl-N-(2-(6-(2-hydroxypropan-2-yl)pyridin-2-yl)ethyl)benzamide], the IC50 at human orexin-2 receptor worked out at 14 nM; at hOX1R, 9040 nM.

`CCN(CCc1cccc(C(C)(C)O)n1)C(=O)c1ccccc1-c1ncccn1` [Example 32, N-Ethyl-N-(2-(6-(2-hydroxypropan-2-yl)pyridin-2-yl)ethyl)-2-(pyrimidin-2-yl)benzamide]: the 50% inhibitory concentration (IC50) at human orexin-2 receptor was 16 nM; on hOX1R it was 7360 nM.

With `CCN(CCc1ccc(C(C)(C)O)cn1)C(=O)c1ccccc1-n1nccn1` [Example 35, N-Ethyl-N-{2-[5-(1-hydroxy-1-methylethyl)pyridin-2-yl]ethyl}-2-(2H-1,2,3-triazol-2-yl)benzamide], the IC50 was 50 nM at human orexin-2 receptor and over 10000 nM on hOX1R.

`CCCc1ccccc1C(=O)N(CC)CCc1ccc(C(C)(C)O)cn1` [Example 52, N-ethyl-N-{2-[5-(1-hydroxy-1-methylethyl)pyridin-2-yl]ethyl}-2-propylbenzamide] gave an IC50 at hOX1R of over 10000 nM.

Usually IC50 stands for the concentration needed to halve the response being measured.
